From patent publication US8592448B2 (OSI Pharmaceuticals, LLC, priority 2008, dated 2013)

Tests used:
MKN45 cells = assay: MKN45 cell proliferation assay (CellTiter-Glo); assay type: cell-based; conditions: Homo sapiens, MKN-45, 72 h, MKN45 cell line, 3 days incubation, at least duplicate experiments, read-out: Prolif. IC50
Description: The effect of inhibitors on the proliferation of MKN45 cells was determined using the following protocol. MKN45 cells were plated in Corning 3917 96-well white tissue culture treated plates in growth medium (RPMI, 10% FCS) at a density of 5000 cells/well in a total volume of 135 μL and incubated at 37° C., 5% CO2, 95% humidity overnight. The following day, one-tenth volume of a 10× concentration of compounds was added to the wells in an 8-point dilution series. The dilution series was composed of an initial 1:5 dilution of a 10 mM stock of compound in DMSO, followed by serial 1:4 dilutions in DMSO, then a 1:20 dilution in growth medium prior to the 1:10 dilution into the cell plate. Final DMSO concentration on the cells was 0.1%, there were control wells treated with both 0.1% DMSO and no DMSO. The typical dilution range is 10 μM to 0.6 nM. Once the compound was added to the cells, plates were incubated for 3 days at 37° C., 5% CO2 at 95% humidity. On the third day, after allowing all cells and reagents to come to room temperature, 25 μL of CellTiter-Glo reagent (Promega # G7573) was added to the wells. Plates were shaken on a platform for 10 minutes prior to reading luminescence for 0.1 seconds. The signal of the control wells was taken as 100% growth and growth inhibition was expressed as percent of control. IC50 values were determined from the percent of control data using a standard four-parameter model.
(§1) The IC50 values of exemplary compounds of the present invention determined in a cell proliferation assay using the MKN45 cell line according to the procedures described herein in at least duplicate experiments are abbreviated as follows and are shown in Table 2: A, IC50≦0.1 μM; B, 0.1 μM<IC50≦1 μM; C, 1 μM<IC50≦10 μM; D, IC50>10 μM; ND, not determined. The Example # of Table 2 corresponds to the compound example number as illustrated in the Examples section.

phosphorylated c-MET = target: T1, phosphorylated c-MET (Homo sapiens, UniProt P08581); assay: c-MET cell mechanistic assay (phosphorylated c-MET in MKN45 cells); assay type: cell-based; conditions: MKN45 cell line, four hours incubation, phosphorylated c-MET levels, at least duplicate experiments; read-out: Met mech IC50
T1 construct: endogenous in cells; host or cells: MKN45
T1 sequence (P08581 25-1390): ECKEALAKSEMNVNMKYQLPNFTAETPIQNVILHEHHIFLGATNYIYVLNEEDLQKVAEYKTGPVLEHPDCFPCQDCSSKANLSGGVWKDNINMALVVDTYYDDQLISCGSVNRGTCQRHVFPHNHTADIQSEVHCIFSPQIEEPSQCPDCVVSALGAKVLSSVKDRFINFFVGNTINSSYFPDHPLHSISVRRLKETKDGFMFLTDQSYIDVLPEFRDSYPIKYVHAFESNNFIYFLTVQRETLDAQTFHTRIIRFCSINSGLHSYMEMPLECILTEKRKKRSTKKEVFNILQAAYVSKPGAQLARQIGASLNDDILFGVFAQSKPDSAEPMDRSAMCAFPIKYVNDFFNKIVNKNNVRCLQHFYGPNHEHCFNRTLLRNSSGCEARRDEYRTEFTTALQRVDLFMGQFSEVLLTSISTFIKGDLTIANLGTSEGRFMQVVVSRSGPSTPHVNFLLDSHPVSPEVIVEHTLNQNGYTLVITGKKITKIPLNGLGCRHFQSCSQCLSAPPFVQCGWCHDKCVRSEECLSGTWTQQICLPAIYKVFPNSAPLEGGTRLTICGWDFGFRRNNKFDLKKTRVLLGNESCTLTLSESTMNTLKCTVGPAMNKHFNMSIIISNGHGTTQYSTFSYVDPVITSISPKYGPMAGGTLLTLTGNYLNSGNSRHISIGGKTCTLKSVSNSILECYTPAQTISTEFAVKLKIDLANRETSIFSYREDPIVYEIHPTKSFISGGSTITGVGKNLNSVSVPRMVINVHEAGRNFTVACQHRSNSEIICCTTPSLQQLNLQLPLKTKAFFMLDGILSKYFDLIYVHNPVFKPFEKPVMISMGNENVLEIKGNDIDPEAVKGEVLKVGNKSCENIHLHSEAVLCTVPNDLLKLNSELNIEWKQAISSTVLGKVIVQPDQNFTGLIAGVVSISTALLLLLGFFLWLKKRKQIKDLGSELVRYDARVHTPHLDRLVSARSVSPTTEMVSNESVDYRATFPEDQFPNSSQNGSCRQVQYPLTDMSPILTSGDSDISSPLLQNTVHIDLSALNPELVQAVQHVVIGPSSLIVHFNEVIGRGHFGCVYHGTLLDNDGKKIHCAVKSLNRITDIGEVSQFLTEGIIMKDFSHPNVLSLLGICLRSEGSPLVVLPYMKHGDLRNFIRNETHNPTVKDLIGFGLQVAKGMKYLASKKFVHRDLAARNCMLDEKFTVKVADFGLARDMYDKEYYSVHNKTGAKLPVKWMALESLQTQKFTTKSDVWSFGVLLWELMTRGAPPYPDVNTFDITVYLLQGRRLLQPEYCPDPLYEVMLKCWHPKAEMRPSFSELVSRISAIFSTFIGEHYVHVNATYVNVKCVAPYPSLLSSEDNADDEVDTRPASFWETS
Description: The cellular activity of the compounds of the present invention may be determined by the following procedure. MKN45 cells were plated in Falcon 3072 96-well plates in growth media (RPMI, 10% FBS, 1% L-glutamine) at a density of 5000 cells/well and incubated at 37° C., 5% CO2 overnight. The following day, one-tenth volume of a 10× concentration of compounds was added to the wells in a 6-point dilution series. The dilutions series was composed of an initial 1:5 dilution in DMSO, followed by a 1:10 dilution in growth media, for a final DMSO concentration on cells of 0.5%. Control wells were treated with 0.5% DMSO. The typical range of dilution was 10 μM to 3 nM. Once compound was added to the cells, plates were incubated for four hours at 37° C., 5% CO2. Plates were then washed in PBS, and lysed in triton-based lysis buffer. Lysates were transferred to a precoated capture plate made by Biosource (Cat # KH00281). The phosphorylated c-MET levels were measured by incubating with a rabbit polyclonal antibody against phosphorylated c-MET ([pYpYpY1230/1234/1235]) followed by an anti-rabbit antibody conjugated to HRP. Signal was measured on a Wallac Victor plate reader at 450 nm. The DMSO signal of the control wells was defined as 100% and the percent of inhibition of phosphorylated c-Met was expressed as percent of control. IC50 values were determined from the percent of control data using a standard four-parameter model.
as §1, with “in a c-MET cell mechanistic” for “in a cell proliferation”, “c-MET cell mechanistic assay using” for “a cell proliferation assay using”, “in Table 3: A, IC50≦0.1” for “in Table 2: A, IC50≦0.1”, “of Table 3 corresponds to” for “of Table 2 corresponds to”

| Structure (SMILES) | IC50 (MKN45 cells) [nM] | IC50 (phosphorylated c-MET) [nM] |
| --- | --- | --- |
| C[C@H](c1c(Cl)ccc(F)c1Cl)c1c[nH]c2ncc(-c3cnn(C[C@H](O)CO)c3)cc12 [Example 90, (S)-3-(4-{3-[(S)-1-(2,6-Dichloro-3-fluorophenyl)ethyl]-1H-pyrrolo[2,3-b]pyridin-5-yl}-pyrazol-1-yl)-propane-1,2-diol] | ≤ 100 | ≤ 100 |
| CC(c1c(Cl)ccc(F)c1Cl)c1c[nH]c2ncc(C3=CCN(C(N)=O)CC3)cc12 (stereo not shown) [Example 33, 4-{3-[1-(2,6-Dichloro-3-fluorophenyl)ethyl]-1H-pyrrolo[2,3-b]pyridin-5-yl}-3,6-dihydro-2H-pyridine-1-carboxamide] | 100 to 1000 | ≤ 100 |
| CNS(=O)(=O)c1ccc(-c2cnc3[nH]cc(C(C)c4c(Cl)ccc(F)c4Cl)c3c2)cc1 (stereo not shown) [Example 23, 4-{3-[1-(2,6-Dichloro-3-fluorophenyl)ethyl]-1H-pyrrolo[2,3-b]pyridin-5-yl}-N-methylbenzenesulfonamide] | 1000 to 10000 | 100 to 1000 |
| C[C@H](c1c(Cl)ccc(F)c1Cl)c1c[nH]c2ncc(-c3ccc(C(=O)N4CCNCC4)cc3)cc12 [Example 69, (4-{3-[(S)-1-(2,6-Dichloro-3-fluorophenyl)ethyl]-1H-pyrrolo[2,3-b]pyridin-5-yl}phenyl)piperazin-1-ylmethanone] | 100 to 1000 | ≤ 100 |
| CC(c1c(Cl)ccc(F)c1Cl)c1c[nH]c2ncc(-c3cnn(C)c3)cc12 (stereo not shown) [Example 27, 3-[1-(2,6-Dichloro-3-fluorophenyl)-ethyl]-5-(1-methyl-1H-pyrazol-4-yl)-1H-pyrrolo[2,3-b]pyridine] | 100 to 1000 | ≤ 100 |
| CC(c1c(Cl)ccc(F)c1Cl)c1c[nH]c2ncc(-c3cnn(C4CCN(C(=O)N(C)C)CC4)c3)cc12 (stereo not shown) [Example 28, 4-(4-{3-[1-(2,6-Dichloro-3-fluorophenyl)ethyl]-1H-pyrrolo[2,3-b]pyridin-5-yl}-pyrazol-1-yl)-piperidine-1-carboxylic acid dimethylamide] | ≤ 100 | ≤ 100 |
| CC(c1c(Cl)ccc(F)c1Cl)c1c[nH]c2ncc(-c3ccc(C(=O)N(C)C)cc3)cc12 (stereo not shown) [Example 3, 4-{3-[1-(2,6-Dichloro-3-fluorophenyl)ethyl]-1H-pyrrolo[2,3-b]pyridin-5-yl}-N,N-dimethylbenzamide] | 100 to 1000 | 100 to 1000 |
| CC(=O)N1CCC(n2cc(-c3cnc4[nH]cc(C(C)c5c(Cl)ccc(F)c5Cl)c4c3)cn2)CC1 (stereo not shown) [Example 48, 1-[4-(4-{3-[1-(2,6-Dichloro-3-fluorophenyl)ethyl]-1H-pyrrolo[2,3-b]pyridin-5-yl]-pyrazol-1-yl}-piperidin-1-yl)-ethanone] | ≤ 100 | ≤ 100 |
| CC(c1c(Cl)ccc(F)c1Cl)c1c[nH]c2ncc(-c3cnn(C4CN(S(C)(=O)=O)C4)c3)cc12 (stereo not shown) [Example 57, 3-[1-(2,6-Dichloro-3-fluorophenyl)-ethyl]-5-[1-(1-methanesulfonylazetidin-3-yl)-1H-pyrazol-4-yl]-1H-pyrrolo[2,3-b]pyridine] | 100 to 1000 | ≤ 100 |
| CC(c1c(Cl)ccc(F)c1Cl)c1c[nH]c2ncc(-c3cnn(C(C)C)c3)cc12 (stereo not shown) [Example 30, 3-[1-(2,6-Dichloro-3-fluorophenyl)ethyl]-5-(1-isopropyl-1H-pyrazol-4-yl)-1H-pyrrolo[2,3-b]pyridine] | 100 to 1000 | ≤ 100 |
| CC(c1c(Cl)ccc(F)c1Cl)c1c[nH]c2ncc(-c3cnn(C4CN(C(N)=O)C4)c3)cc12 (stereo not shown) [Example 56, 3-(4-{3-[1-(2,6-Dichloro-3-fluorophenyl)ethyl]-1H-pyrrolo[2,3-b]pyridin-5-yl}-pyrazol-1-yl)-azetidine-1-carboxamide] | 100 to 1000 | ≤ 100 |
| CC(c1c(Cl)ccc(F)c1Cl)c1c[nH]c2ncc(C3=CCN(C(=O)C(C)(C)N)CC3)cc12 (stereo not shown) [Example 45, 2-Amino-1-(4-{3-[1-(2,6-dichloro-3-fluorophenyl)ethyl]-1H-pyrrolo[2,3-b]pyridin-5-yl}-3,6-dihydro-2H-pyridin-1-yl)-2-methylpropan-1-one] | ≤ 100 | ≤ 100 |
| CC(c1c(Cl)ccc(F)c1Cl)c1c[nH]c2ncc(-c3ccc(C(=O)N4CCOCC4)cc3)cc12 (stereo not shown) [Example 13, (4-{3-[1-(2,6-Dichloro-3-fluorophenyl)ethyl]-1H-pyrrolo[2,3-b]pyridin-5-yl}phenyl)morpholin-4-ylmethanone] | 100 to 1000 | 100 to 1000 |
| CC(c1c(Cl)ccc(F)c1Cl)c1c[nH]c2ncc(-c3ccc(N(C)C)cc3)cc12 (stereo not shown) [Example 11, (4-{3-[1-(2,6-Dichloro-3-fluorophenyl)ethyl]-1H-pyrrolo[2,3-b]pyridin-5-yl}phenyl)dimethylamine] | 1000 to 10000 |  |
| CC(c1c(Cl)ccc(F)c1Cl)c1c[nH]c2ncc(-c3ccc(N4CCN(C)CC4)cc3)cc12 (stereo not shown) [Example 16, 3-[1-(2,6-Dichloro-3-fluorophenyl)ethyl]-5-[4-(4-methylpiperazin-1-yl)phenyl]-1H-pyrrolo[2,3-b]pyridine] | 100 to 1000 |  |
| CC(c1c(Cl)ccc(F)c1Cl)c1c[nH]c2ncc(-c3ccc(N4CCOCC4)cc3)cc12 (stereo not shown) [Example 25, 3-[1-(2,6-Dichloro-3-fluorophenyl)ethyl]-5-(4-morpholin-4-ylphenyl)-1H-pyrrolo[2,3-b]pyridine] | 100 to 1000 |  |
| CC(=O)Nc1ccc(-c2cnc3[nH]cc(C(C)c4c(Cl)ccc(F)c4Cl)c3c2)cc1 (stereo not shown) [Example 10, N-(4-{3-[1-(2,6-Dichloro-3-fluorophenyl)ethyl]-1H-pyrrolo[2,3-b]pyridin-5-yl}phenyl)acetamide] | 1000 to 10000 |  |
| CC(c1c(Cl)ccc(F)c1Cl)c1c[nH]c2ncc(-c3ccc(C(N)=O)cc3)cc12 (stereo not shown) [Example 14, 4-{3-[1-(2,6-Dichloro-3-fluorophenyl)ethyl]-1H-pyrrolo[2,3-b]pyridin-5-yl}benzamide] | 1000 to 10000 |  |
| CC(c1c(Cl)ccc(F)c1Cl)c1c[nH]c2ncc(-c3ccc(O)cc3)cc12 (stereo not shown) [Example 8, 4-{3-[1-(2,6-Dichloro-3-fluorophenyl)ethyl]-1H-pyrrolo[2,3-b]pyridin-5-yl}phenol] | 1000 to 10000 |  |
| CC(c1c(Cl)ccc(F)c1Cl)c1c[nH]c2ncc(-c3ccsc3)cc12 (stereo not shown) [Example 9, 3-[1-(2,6-Dichloro-3-fluorophenyl)ethyl]-5-thiophen-3-yl-1H-pyrrolo[2,3-b]pyridine] | 1000 to 10000 |  |
| COC(=O)N1CC=C(c2cnc3[nH]cc(C(C)c4c(Cl)ccc(F)c4Cl)c3c2)CC1 (stereo not shown) [Example 35, 4-{3-[1-(2,6-Dichloro-3-fluorophenyl)-ethyl]-1H-pyrrolo[2,3-b]pyridin-5-yl}-3,6-dihydro-2H-pyridine-1-carboxylic acid methyl ester] |  | 100 to 1000 |
| CC(c1c(Cl)ccc(F)c1Cl)c1c[nH]c2ncc(-c3ccc(NS(C)(=O)=O)cc3)cc12 (stereo not shown) [Example 17, N-(4-{3-[1-(2,6-Dichloro-3-fluorophenyl)ethyl]-1H-pyrrolo[2,3-b]pyridin-5-yl}phenyl)methanesulfonamide] | 1000 to 10000 |  |
| CC(c1c(Cl)ccc(F)c1Cl)c1c[nH]c2ncc(-c3ccc(C(=O)NC4CCCCC4)cc3)cc12 (stereo not shown) [Example 21, N-Cyclohexyl-4-{3-[1-(2,6-dichloro-3-fluorophenyl)ethyl]-1H-pyrrolo[2,3-b]pyridin-5-yl}benzamide] | 1000 to 10000 |  |
| CC(c1c(Cl)ccc(F)c1Cl)c1c[nH]c2ncc(-c3cncnc3)cc12 (stereo not shown) [Example 12, 3-[1-(2,6-Dichloro-3-fluorophenyl)ethyl]-5-pyrimidin-5-yl-1H-pyrrolo[2,3-b]pyridine] | 1000 to 10000 |  |
